Data: patent US20250084080A1, “CRYSTALLINE AND SALT FORMS OF AN NLRP3 INHIBITOR” (BioAge Labs, Inc., priority 2023, published 2025)
Values after ≈ are worked out from the molar mass of the structure shown.

Legend:
Assay type in all cases: physicochemical
[1] = Hygroscopicity by dynamic vapor sorption (DVS) at 25° C.; settings: DVS at 25° C.
Protocol: Dynamic vapor sorption (DVS) was performed on an Intrinsic, Advantage or Adventure with an oven temperature of 25° C. using water as a solvent. The sample mass was about 5-10 mg using the following method: • Cycle: 40-0-95-0-40% RH • Stage Step: 10% • Equilibrium: 0.002 dm/dt (%/min) • Minimum dm/dt stability duration: 60 min • Maximum dm/dt stage time: 360 min. Hygroscopicity of free form Pattern B was evaluated by dynamic vapor sorption (DVS) test at 25° C. […] It absorbed about 0.8% water at 80% RH at 25° C.

[2] = Solubility at 37° C. in buffers and biorelevant media, XRPD of residual solid; settings: for XRPD of residual solid: 24 h; for solubility: thermodynamic from solid
Protocol: Solubility of BAL-0748 free form Pattern B was investigated in pH 1.2 HCl buffer, pH 4.5 50 mM acetate buffer, pH 6.8 50 mM phosphate buffer, water, pH 1.6 FaSSGF, pH 6.5 FaSSIF-v1, pH 5.0 FeSSIF-v1 and 2% HPMC+1% Pluronic F68 in pH 4.5 50 mM acetate buffer at 37° C. for 2 h and 24 h. Residual solids after the solubility test were analyzed by XRPD.
Solubility of the free form Pattern A, the HCl salt Pattern A, the phosphate salt Pattern A, and the sodium salt Pattern A was measured in pH 1.2 HCl buffer, pH 4.5 acetate buffer (50 mM), pH 6.8 phosphate buffer (50 mM), water, pH 1.6 FaSSGF, pH 6.5 FaSSIF-v1, pH 5.0 FeSSIF-v1, and 2% HPMC+1% Pluronic F68 in pH 4.5 acetate buffer (50 mM) at 37° C. for 2 hours and 24 hours.
10.4 mg of the free form Pattern A, 10.0 mg of the free form Pattern B, 10.8 mg of the HCl salt Pattern A, 12.2 mg of the phosphate salt Pattern A, or 10.5 mg of the sodium salt Pattern A was weighed into a 20 mL glass vial, respectively. 5 mL of solubility medium was added. The salt amount used was equivalent to 10 mg anhydrous free form. Obtained suspensions were stirred at 37° C. at 400 rpm and sampled at 2 hours and at 24 hours. The samples were centrifuged at 37° C. at 14,000 rpm for 5 min. Supernatants were analyzed by HPLC and PH meter for solubility and pH value, respectively. Residual solids (wet cakes) from the 24 hours samples were also characterized by XRPD to determine physical form.

[3] = Bulk stability (solid state, 1 week; HPLC, XRPD, IC, color); settings: 25° C./92.5% RH open, 40° C./75% RH open, 60° C. tight container
Protocol: Bulk stability of free form Pattern B was evaluated at 25° C./92.5% RH in an open container, at 40° C./75% RH in an open container and at 60° C. in a tight container over 1 week.

[4] = Exposure of Pattern C in ambient condition (variable temperature XRPD); settings: 23° C., 27% RH
Protocol: Pattern C is an anhydrate. It was obtained in variable temperature XRPD experiment by heating Pattern A to 100° C. under the nitrogen atmosphere. Pattern C is of high crystallinity. According to the DSC thermogram of Pattern A, Pattern C has a melting peak at Tonset of 134.2° C. Pattern C is a metastable form.

Row | SMILES | Hygroscopicity [1] | XRPD after DVS test [1] | Water absorbed at 80% RH ([1]; 80% RH) | XRPD of residual solid ([2]; FaSSGF, pH 1.6, 37° C.) | Form after the solubility test (XRPD) ([2]; most of media) | XRPD of residual solid ([2]; pH 1.2 HCl buffer, 37° C.) | solubility ([2]; other media (pH 4.5 acetate, pH 6.8 phosphate, water, FaSSIF-v1, HPMC/Pluronic), 37° C., 2 h and 24 h) | solubility ([2]; pH 1.2 HCl buffer, pH 1.6 FaSSGF and pH 5.0 FeSSIF-v1, 37° C.) | Bulk stability, chemical and physical [3] | Degradation by HPLC [3] | Form change by XRPD [3] | Form conversion after exposure in ambient condition [4]
1 | CCOc1cc(C(=O)N(C)Cc2cnc(CO)c3cn[nH]c23)ccc1-c1cc(F)cc(F)c1 [Free form Pattern B, 2-ethoxy-3′,5′-difluoro-N-((4-(hydroxymethyl)-1H-pyrazolo[4,3-c]pyridin-7-yl)methyl)-N-methyl-[1,1′-biphenyl]-4-carboxamide] | slightly hygroscopic | still Pattern B | about 0.8% | hemi-HCl salt Pattern A | no form change or partially converted to free form Pattern A | Mono-HCl salt Pattern A | 2 to 80 µg/mL (≈ 4.42 to 177 µM) | 100 to 600 µg/mL (≈ 221 to 1330 µM) | physically and chemically stable | no obvious degradation | no form change | 
2 | CCOc1cc(C(=O)N(C)Cc2cnc(CO)c3cn[nH]c23)ccc1-c1cc(F)cc(F)c1 [Pattern C, 2-ethoxy-3′,5′-difluoro-N-((4-(hydroxymethyl)-1H-pyrazolo[4,3-c]pyridin-7-yl)methyl)-N-methyl-[1,1′-biphenyl]-4-carboxamide] |  |  |  |  |  |  |  |  |  |  |  | converted to Pattern A
